Results published in patent US9854804B2, “Antifungal composition comprising polycyclic peptide compound and method for preparing the same” (KOREAN RESEARCH INSTITUTE OF BIOSCIENCE AND BIOTECHNOLOGY, priority 2011, dated 2018).
Values after ≈ are worked out from the molar mass of the structure shown. Where two headings read alike, the source gives them in different places.

Experiments:
[1] = tested on: Staphylococcus aureus RN 4220; experiment: Broth microdilution antibacterial activity (MIC); type: cell-based
Method: (§1) Test strains were maintained in MHB (Mueller Hinton broth), and antibacterial activity was measured using a broth microdilution method. After being incubated overnight, each of the test stains was diluted to a population of 2×100,000 cells/ml, and aliquoted in an amount of 100 μl per well into 96-well plates. Complestatin, neuroprotectin A and positive controls such as vancomycin, oxacillin and nofloxacin were treated at concentration with gradual dilution by 2-fold from maximum concentration of 128 μg/ml. Each compound was diluted in dimethylsulxoside (DMSO), and the concentration of DMSO was adjusted to approximately 1/100 before application. After incubation for 20 hrs, absorbance was read at 650 nm to examine the growth of bacterial cells.
(§2) The compounds of the present invention, complestatin and neuroprotectin A were examined for antibacterial activity against vacomycin-resistant bacteria in the same manner as in Example 4, and the results are given in Table 4, below.

MRSA CCARM 3167 = experiment: Broth microdilution antibacterial activity (MIC); type: cell-based, Methicillin-resistant Staphylococcus aureus; details: Staphylococcus aureus
Method: as §1

MRSA CCARM 3506 = experiment: Broth microdilution antibacterial activity (MIC); type: cell-based, Methicillin-resistant Staphylococcus aureus; details: Staphylococcus aureus
Method: as §1

QRSA CCARM 3505 = experiment: Broth microdilution antibacterial activity (MIC); type: cell-based, Quinolone-resistant Staphylococcus aureus; details: Staphylococcus aureus, CCARM3505
Method: as §1

QRSA CCARM 3519 = experiment: Broth microdilution antibacterial activity (MIC); type: cell-based, Quinolone-resistant Staphylococcus aureus; details: Staphylococcus aureus, CCARM3519
Method: as §1

[2] = tested on: Bacillus cereus KCTC 1661; experiment: Broth microdilution antibacterial activity (MIC); type: cell-based; details: KCTC1661
Method: as §1

[3] = tested on: Bacillus subtilis KCTC 1021; experiment: Broth microdilution antibacterial activity (MIC); type: cell-based; details: KCTC1021
Method: as §1

[4] = tested on: Entercoccus faecium KCTC 3511; experiment: Broth microdilution antibacterial activity (MIC); type: cell-based; details: Enterococcus faecium, KCTC3511
Method: as §1

[5] = tested on: Entercoccus faecium KCTC 5191; experiment: Broth microdilution antibacterial activity (MIC); type: cell-based; details: Enterococcus faecium, KCTC5191
Method: as §1

[6] = tested on: Staphylococcus aureus 209; experiment: Broth microdilution antibacterial activity (MIC); type: cell-based
Method: as §1

[7] = tested on: Staphylococcus epidermidis KCTC 3958; experiment: Broth microdilution antibacterial activity (MIC); type: cell-based; details: KCTC3958
Method: as §1

VRSA 48 = experiment: Antibacterial activity against vancomycin-resistant bacteria (MIC); type: cell-based, Vancomycin-resistant S. aureus; details: Staphylococcus aureus
Method: as §1, §2

VRE 11 = experiment: as above; type: cell-based; details: Enterococcus
Method: as §1, §2

VRE 3 = experiment: as above; type: cell-based; details: Enterococcus
Method: as §1, §2

VRE 7 = experiment: as above; type: cell-based; details: Enterococcus
Method: as §1, §2

[8] = tested on: Vancomycin-resistant S. aureus (VRSA) and Vancomycin-resistant Enterococcus (VRE); experiment: Antibacterial activity, vancomycin-resistant bacteria of Table 4; type: cell-based
Method: as §1, §2

[9] = tested on: Staphylococcus aureus, Bacillus subtilis, Bacillus cereus, Enterococcus faecium and Staphylococcus epidermis, MRSA, QRSA; experiment: Antibacterial activity, summary over the panel of Table 3; type: cell-based
Method: as §1

[10] = RN4220, Staphylococcus aureus RN 4220, Table 3, read-out: MIC
[11] = Bacillus cereus KCTC 1661, read-out: MIC
[12] = Bacillus subtilis KCTC 1021, read-out: MIC
[13] = Entercoccus faecium KCTC 3511, read-out: MIC
[14] = Entercoccus faecium KCTC 5191, read-out: MIC
[15] = Staphylococcus aureus 209, 20 hrs incubation, MHB, read-out: MIC
[16] = Staphylococcus epidermidis KCTC 3958, read-out: MIC
[17] = against VRSA and VRE (text summary of Table 4), read-out: MIC

SMILES | MIC [1, 10] [µg/mL] | MIC ([1]; S. aureus RN 4220, Table 4) [µg/mL] | MIC (MRSA CCARM 3167; MRSA CCARM 3167, read-out: MIC) [µg/mL] | MIC (MRSA CCARM 3506; MRSA CCARM 3506, read-out: MIC) [µg/mL] | MIC (QRSA CCARM 3505; QRSA CCARM 3505, read-out: MIC) [µg/mL] | MIC (QRSA CCARM 3519; QRSA CCARM 3519, read-out: MIC) [µg/mL] | MIC [2, 11] [µg/mL] | MIC [3, 12] [µg/mL] | MIC [4, 13] [µg/mL] | MIC [5, 14] [µg/mL] | MIC [6, 15] [µg/mL] | MIC [7, 16] [µg/mL] | MIC (VRSA 48; VRSA 48, read-out: MIC) [µg/mL] | MIC (VRE 11; VRE 11, read-out: MIC) [µg/mL] | MIC (VRE 3; VRE 3, read-out: MIC) [µg/mL] | MIC (VRE 7; VRE 7, read-out: MIC) [µg/mL] | MIC [8, 17] [µg/mL] | MIC [9] [µg/mL] | also measured
Cc1onc(-c2ccccc2)c1C(=O)N[C@@H]1C(=O)N2[C@@H]1SC(C)(C)[C@@H]2C(=O)O [Oxacillin] | 0.25 (≈ 0.623 µM) | 0.25 (≈ 0.623 µM) | 500 (≈ 1250 µM) | 500 (≈ 1250 µM) | 0.5 (≈ 1.25 µM) | 0.5 (≈ 1.25 µM) | 32 (≈ 79.7 µM) | 0.25 (≈ 0.623 µM) | 8 (≈ 19.9 µM) | 4 (≈ 9.96 µM) | 0.25 (≈ 0.623 µM) | 0.25 (≈ 0.623 µM) | > 200 | > 200 | > 200 | > 200 | > 200 |  | 
CN[C@H](CC(C)C)C(=O)N[C@H]1C(=O)N[C@@H](CC(N)=O)C(=O)N[C@H]2C(=O)N[C@H]3C(=O)N[C@H](C(=O)N[C@H](C(=O)O)c4cc(O)cc(O)c4-c4cc3ccc4O)[C@H](O)c3ccc(c(Cl)c3)Oc3cc2cc(c3O[C@@H]2O[C@H](CO)[C@@H](O)[C@H](O)[C@H]2O[C@H]2C[C@](C)(N)[C@H](O)[C@H](C)O2)Oc2ccc(cc2Cl)[C@H]1O [Vancomycin] |  | 1 (≈ 0.69 µM) |  |  |  |  |  |  |  |  |  |  |  |  |  |  |  |  | MIC ([1]; Staphylococcus aureus, RN4220): 1 µg/mL (≈ 0.69 µM); MIC (MRSA CCARM 3167): 2 µg/mL (≈ 1.38 µM); MIC (MRSA CCARM 3506): 0.5 µg/mL (≈ 0.345 µM); MIC (QRSA CCARM 3505): 1 µg/mL (≈ 0.69 µM); MIC (QRSA CCARM 3519): 1 µg/mL (≈ 0.69 µM); MIC ([2]; Bacillus cereus): 1 µg/mL (≈ 0.69 µM); MIC ([3]; Bacillus subtilis): 0.125 µg/mL (≈ 0.0863 µM); MIC [4]: 2 µg/mL (≈ 1.38 µM); MIC [5]: 1 µg/mL (≈ 0.69 µM); MIC ([6]; Staphylococcus aureus, 209, 20 h): 0.5 µg/mL (≈ 0.345 µM); MIC ([7]; Staphylococcus epidermidis): 2 µg/mL (≈ 1.38 µM); MIC (VRSA 48; VRSA): > 200 µg/mL; MIC (VRE 11; VRE): > 200 µg/mL; MIC (VRE 3; VRE): > 200 µg/mL; MIC (VRE 7; VRE): > 200 µg/mL; MIC ([8]; VRE): > 200 µg/mL
CCn1cc(C(=O)O)c(=O)c2cc(F)c(N3CCNCC3)cc21 [Norfloxacin] | 1 (≈ 3.13 µM) | 1 (≈ 3.13 µM) | 8 (≈ 25.1 µM) | 1 (≈ 3.13 µM) | 250 (≈ 783 µM) | 125 (≈ 391 µM) | 1 (≈ 3.13 µM) | 0.25 (≈ 0.783 µM) | 4 (≈ 12.5 µM) | 4 (≈ 12.5 µM) | 0.25 (≈ 0.783 µM) | 0.5 (≈ 1.57 µM) | 200 (≈ 626 µM) | 200 (≈ 626 µM) | 50 (≈ 157 µM) | 50 (≈ 157 µM) |  |  | 
CN1C(=O)C(c2cc(Cl)c(O)c(Cl)c2)NC(=O)C2NC(=O)C(c3cc(Cl)c(O)c(Cl)c3)NC(=O)C(NC(=O)C(=O)c3cc(Cl)c(O)c(Cl)c3)CC3C(=O)Nc4cc(ccc43)-c3cc2cc(c3O)Oc2ccc(cc2)CC1C(=O)NC(C(=O)O)c1ccc(O)cc1 (centres unmarked) [Neuroprotectin A] | 1 (≈ 0.744 µM) | 1 (≈ 0.744 µM) | 1 (≈ 0.744 µM) | 1 (≈ 0.744 µM) | 1 (≈ 0.744 µM) | 2 (≈ 1.49 µM) | 0.5 (≈ 0.372 µM) | 0.5 (≈ 0.372 µM) | 2 (≈ 1.49 µM) | 2 (≈ 1.49 µM) | 2 (≈ 1.49 µM) | 2 (≈ 1.49 µM) | 1 (≈ 0.744 µM) | 1 (≈ 0.744 µM) | 1 (≈ 0.744 µM) | 1 (≈ 0.744 µM) | 1 (≈ 0.744 µM) | 0.5 to 2 (≈ 0.372 to 1.49 µM) | 
CN1C(=O)C(c2cc(Cl)c(O)c(Cl)c2)NC(=O)C2NC(=O)C(c3cc(Cl)c(O)c(Cl)c3)NC(=O)C(NC(=O)C(=O)c3cc(Cl)c(O)c(Cl)c3)Cc3c[nH]c4cc(ccc34)-c3cc2cc(c3O)Oc2ccc(cc2)CC1C(=O)NC(C(=O)O)c1ccc(O)cc1 (centres unmarked) [Complestatin] | 1 (≈ 0.753 µM) | 1 (≈ 0.753 µM) | 1 (≈ 0.753 µM) | 1 (≈ 0.753 µM) | 1 (≈ 0.753 µM) | 2 (≈ 1.51 µM) | 0.5 (≈ 0.376 µM) | 0.5 (≈ 0.376 µM) | 2 (≈ 1.51 µM) | 2 (≈ 1.51 µM) | 2 (≈ 1.51 µM) | 2 (≈ 1.51 µM) | 1 (≈ 0.753 µM) | 1 (≈ 0.753 µM) | 1 (≈ 0.753 µM) | 1 (≈ 0.753 µM) | 1 (≈ 0.753 µM) | 0.5 to 2 (≈ 0.376 to 1.51 µM) | 
